Results on nine compounds are retold here after PubChem BioAssay (NCI).

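Growth conditions: 96-well plates. Treatment: test compound, 48 hours, 5 concentrations. Analysis: linear interpolation between bracketing concentrations; unreached endpoints set to highest concentration. GI50 is the concentration that inhibits growth by half. TGI: concentration producing complete growth inhibition.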

Among the test systems are MDA-MB-231 breast; MALME-3M melanoma; KM12 colon; OVCAR-4 ovarian; M14 melanoma; T-47D breast; HT29 colon; MCF7 breast; SK-MEL-5 melanoma; SK-OV-3 ovarian.
Holding throughout (assay): growth of human tumour cells (NCI), 48 h

Consider `Nc1n[nH]c2cccc(C#Cc3cccc(NC(=O)c4cccc(C(F)(F)F)c4)c3)c12`, for which the GI50 in the test with MDA-MB-231 breast is 1.5 µM; in the test on MALME-3M melanoma, 0.446 µM; in the test on KM12 colon it was 4.52 µM; with OVCAR-4 ovarian it was 3.67 µM; in the test with M14 melanoma, 1.88 µM; with T-47D breast, 1.81 µM. Further, the GI50 with HT29 colon was 2.98 µM; in the test on MCF7 breast it was 3 µM; in the test on SK-MEL-5 melanoma, 4.13 µM; in the test with SK-OV-3 ovarian, 3.19 µM. Also, the TGI in the test on MDA-MB-231 breast was found to be 6.5 µM; in the test on MALME-3M melanoma, 10.9 µM; with KM12 colon, 19.8 µM; with OVCAR-4 ovarian, 17.7 µM; with M14 melanoma it was 10 µM; with T-47D breast, 8.1 µM. Besides, the TGI was 12.8 µM with HT29 colon, 15.8 µM in the test with MCF7 breast, 14.8 µM in the test with SK-MEL-5 melanoma and 10.2 µM in the test on SK-OV-3 ovarian.
Turning to `CCCCCCCCn1ccc2cc(NC(=O)Cn3cc(CN4CCCCCC4)nn3)ccc21`, the GI50 in the test on MDA-MB-231 breast was 1.74 µM; with MALME-3M melanoma it was 1.67 µM; in the test on KM12 colon it was 1.73 µM; in the test on OVCAR-4 ovarian it was 1.59 µM; in the test with M14 melanoma it was 1.67 µM; in the test on T-47D breast, 1.66 µM. Moreover, the GI50 in the test with HT29 colon is 1.73 µM; in the test on MCF7 breast it was 1.83 µM; in the test with SK-MEL-5 melanoma, 1.74 µM; in the test on SK-OV-3 ovarian, 1.75 µM. Besides, the TGI with MDA-MB-231 breast was determined as 3.47 µM; in the test on MALME-3M melanoma, 3.2 µM; in the test with KM12 colon it was 3.27 µM; in the test with OVCAR-4 ovarian it was 3.13 µM; with M14 melanoma it was 3.23 µM; with T-47D breast it was 3.78 µM. Moreover, the TGI in the test with HT29 colon is 3.46 µM; with MCF7 breast it was 3.63 µM; in the test with SK-MEL-5 melanoma it was 3.13 µM; in the test on SK-OV-3 ovarian, 3.33 µM.
Consider `CNC(=O)OCc1nc(SSC(C)(C)C)n(C)c1COC(=O)NC`, for which the TGI with MDA-MB-231 breast was 6.95 µM; in the test on MALME-3M melanoma, 3.76 µM; in the test on KM12 colon, 38.8 µM; in the test on OVCAR-4 ovarian it was 4.3 µM; in the test with M14 melanoma, 4.13 µM; with T-47D breast it was 7.4 µM. Also, the TGI in the test with HT29 colon came out at 13.3 µM; in the test on MCF7 breast it was 15.5 µM; with SK-MEL-5 melanoma it was 16.5 µM; in the test on SK-OV-3 ovarian it was 31.1 µM.
`CC(C)C(O)(C(C)C)C(C)C`: the TGI with MDA-MB-231 breast, with MALME-3M melanoma, with KM12 colon, with OVCAR-4 ovarian, in the test with M14 melanoma and in the test with T-47D breast was greater than 100 µM in each case. The TGI with HT29 colon, with MCF7 breast, in the test on SK-MEL-5 melanoma and with SK-OV-3 ovarian was greater than 100 µM throughout.
For the compound `CC1(C)N=C(N)N=C(N)N1c1ccc(CCC(=O)Nc2ccc(S(=O)(=O)F)cc2)c(Cl)c1`, the GI50 with MDA-MB-231 breast was greater than 64.9 µM; in the test on MALME-3M melanoma it was 19.9 µM; in the test on KM12 colon, 0.243 µM; in the test with OVCAR-4 ovarian, 5.51 µM; with M14 melanoma it was 0.762 µM; in the test on T-47D breast, 12.4 µM. The GI50 was 0.15 µM with HT29 colon, 0.515 µM in the test on MCF7 breast, 0.591 µM with SK-MEL-5 melanoma and 8.56 µM in the test on SK-OV-3 ovarian. For the same compound, the TGI with MDA-MB-231 breast is greater than 100 µM; in the test with MALME-3M melanoma, greater than 100 µM; in the test on KM12 colon, 28.3 µM; in the test with OVCAR-4 ovarian, greater than 100 µM; in the test with M14 melanoma it was greater than 100 µM; with T-47D breast, greater than 100 µM. In addition, the TGI with HT29 colon, in the test on MCF7 breast, in the test on SK-MEL-5 melanoma and in the test with SK-OV-3 ovarian was greater than 100 µM throughout.
Consider `COC(=O)c1ccc2[nH]c(O)c(C(=Nc3ccc(N(C)C(=O)CN4CCN(C)CC4)cc3)c3ccc4c(c3)OCO4)c2c1`, for which the GI50 was 1.08 µM with MDA-MB-231 breast; 0.895 µM in the test on MALME-3M melanoma; 0.0429 µM with KM12 colon; 0.761 µM with OVCAR-4 ovarian; 0.538 µM with M14 melanoma; 0.739 µM in the test with T-47D breast. The GI50 with HT29 colon is 0.553 µM; in the test on MCF7 breast it was 0.327 µM; in the test on SK-MEL-5 melanoma, 0.878 µM; with SK-OV-3 ovarian it was 0.197 µM. The TGI in the test with MDA-MB-231 breast amounted to 2.76 µM; with MALME-3M melanoma, 2.29 µM; in the test with KM12 colon, 1.69 µM; in the test on OVCAR-4 ovarian, 2.72 µM; in the test on M14 melanoma, 1.8 µM; in the test with T-47D breast, 8 µM. Besides, the TGI in the test on HT29 colon was greater than 27.8 µM; with MCF7 breast, 1.8 µM; in the test with SK-MEL-5 melanoma it was 2.17 µM; in the test on SK-OV-3 ovarian it was 1.19 µM.
As to `N[C@H](C(=O)O)[C@@H]1CC(Cl)=NO1`, the TGI was greater than 1000 µM in the test on MDA-MB-231 breast; 542 µM in the test with MALME-3M melanoma; greater than 741 µM in the test on KM12 colon; greater than 653 µM in the test with OVCAR-4 ovarian; greater than 1000 µM in the test with M14 melanoma; greater than 1000 µM in the test with T-47D breast. The TGI in the test with HT29 colon is greater than 811 µM; with MCF7 breast, 325 µM; with SK-MEL-5 melanoma it was 493 µM; with SK-OV-3 ovarian it was greater than 584 µM. Further, the GI50 is 38.9 µM in the test on M14 melanoma; 7.44 µM in the test with HT29 colon; 4.77 µM with MCF7 breast; 8.51 µM in the test on SK-MEL-5 melanoma; 34.5 µM in the test with SK-OV-3 ovarian.
Turning to `Oc1ccc2ccccc2c1N=Nc1cccc2ccccc12`, the TGI with MDA-MB-231 breast, in the test on MALME-3M melanoma, in the test on KM12 colon, in the test on OVCAR-4 ovarian, in the test on M14 melanoma and in the test with T-47D breast was greater than 100 µM in each case. Also, the TGI in the test with HT29 colon, with MCF7 breast, in the test on SK-MEL-5 melanoma and with SK-OV-3 ovarian was greater than 100 µM in each case.
In the case of `COc1ccc2c(c1)NC1=C(C(=O)OC1)C2c1cc(OC)c(OC)c(OC)c1` (centres undefined), the GI50 is less than 0.01 µM in the test on MDA-MB-231 breast; 26 µM in the test with MALME-3M melanoma; less than 0.01 µM with KM12 colon; less than 0.0375 µM in the test with OVCAR-4 ovarian; less than 0.01 µM in the test on M14 melanoma; 25.6 µM in the test with T-47D breast. For the same compound, the GI50 with HT29 colon, with MCF7 breast, in the test on SK-MEL-5 melanoma and with SK-OV-3 ovarian was less than 0.01 µM throughout. In addition, the TGI is less than 0.01 µM in the test with MDA-MB-231 breast; greater than 100 µM with MALME-3M melanoma; greater than 100 µM with KM12 colon; greater than 100 µM in the test on OVCAR-4 ovarian; greater than 100 µM in the test on M14 melanoma; greater than 100 µM with T-47D breast. The TGI with HT29 colon is greater than 100 µM; in the test with MCF7 breast it was greater than 100 µM; in the test on SK-MEL-5 melanoma it was less than 0.0116 µM.
